Results on 1 substance are retold here after patent publication US12358959B2, “Compositions and methods for oligodendrocyte development” (CHILDREN'S MEDICAL CENTER CORPORATION, priority 2016, dated 2025).

Entries after “also recorded” stand apart in the source; their conditions may differ.

This assay concerns cerebellar slices. Briefly: Remyelination of LPC-demyelinated cerebellar slice cultures. The note with it: Gpr56+/+;Tgm2−/− cerebellar slices, LPC 24 hr, 4 days of remyelination, TG2 20 nM; listed as Recombinant TG2. The class given is cell-based, mouse. The text has this:
FIG. 12D provides composite images created in Image J showing myelinated axons (black) for quantification. FIG. 12E is a graph showing percentage of myelinated axons after remyelination. Remyelination was reduced in cerebellar slices that lacked OPC-derived GPR56. *P=0.0135, paired t-test, N=5 per genotype. FIG. 12F provides representative images of cerebellar slice cultures from P10 Gpr56^+/+; Tgm2^−/− and Gpr56^−/−; Tgm2^−/− mouse cerebella that were demyelinated with LPC for 24 hr followed by 4 days of remyelination in the presence or absence of TG2 (20 nM). Slices were immunostained with NF200 (white) and MBP (light gray); myelinated fibers appear yellow in merged images. Scale bar, 100 μm.
Gpr56^fl/fl;PdgfrαCreER^− and Gpr56^fl/fl;PdgfrαCreER^+ P7 pups were injected with tamoxifen (50 mg kg^−1) for 3 days before the cerebellar harvesting. All cerebella were harvested on P10 and placed in ice-cold Hank's buffer (Fisher Scientific) before being cut into 300 μm thick sagittal sections with a vibratome (Leica Biosystems). Three slices were placed onto inserts (Millicell 0.4 μm, Millipore) in media containing 50% MEM, 25% Horse Serum, 25% Hank's Buffer, 1% GlutaMax, 5 mg/ml Glucose. […] Quantification of myelinated fibers was performed using Image J by subtracting background and applying threshold for both red and green channel, before measuring both myelinated and unmyelinated axon fibers.

For the substance Transglutaminase 2 [TG2], the “Remyelination (percentage of myelinated axons)” value is given as “rescued remyelination failure; also recorded: promotes remyelination”.
